{"source": "paper PMC7187627", "about": "(Antimicrobial Agents and Chemotherapy, 2019)", "experiment": "Safety and tolerability (adverse events, laboratory tests, ECG), multiple-ascending-dose phase 1 study", "format": "in vivo", "conditions": "all TEAEs", "text": "Subjects were monitored closely with serial physical examinations, blood evaluations, and 12-lead ECGs. Subjects underwent safety laboratory testing, including measurement of blood cell counts (white blood cell [WBC] with differential, hemoglobin, and platelets), serum chemistry (sodium, potassium, chloride, calcium, bicarbonate, glucose, creatinine, blood urea nitrogen [BUN], creatine kinase [CK], aspartate aminotransferase [AST], alanine aminotransferase [ALT], alkaline phosphatase [ALP], total bilirubin, protein, albumin, amylase, and lipase) and urinalysis (protein, blood, and glucose). Study halting criteria had been established and were reviewed by an independent safety monitor (ISM) and the Safety Monitoring Committee (SMC) prior to proceeding with dosing within a cohort or to the next cohort.\nThe safety population included all subjects who received at least one dose of the study drug. The safety and tolerability of CRS3123 were evaluated by the sequential review of reported adverse events (AEs), changes from baseline in physical examination findings, vital sign measurements, safety laboratory tests (hematology, clinical chemistry, and urinalysis), and key 12-lead ECG findings. All safety assessments were summarized with descriptive statistics or frequency counts.\nThe period of observation for AE reporting began on day 1 at the time of study drug administration and continued through the final visit.\nAll AEs were coded to system organ class (SOC) and preferred term (PT) using the Medical Dictionary for Regulatory Activities (MedDRA), version 17.0 (https://www.meddra.org/). A treatment-emergent AE (TEAE) was defined as any AE that occurred during the study observation period (i.e., from day 1 at the time of study drug administration through the final visit). An AE with a partial onset date was classified as a TEAE if the reported partial onset date could not definitely be identified as before the date of study drug administration. Any AE with a missing onset date or missing time on day of study drug administration was classified as a TEAE.\nTo count the overall number of subjects who experienced each TEAE and calculation of an occurrence rate, a subject experiencing multiple occurrences of an AE was counted only once for that PT. Similarly, if a subject experienced multiple TEAEs within the same SOC, that subject was counted once to calculate an occurrence rate for the SOC. To count the number of subjects who experienced each TEAE by severity classification (mild, moderate, severe, and life-threatening) and calculate an occurrence rate, a subject experiencing multiple occurrences of an AE of the same severity was counted once in that particular severity classification for that PT. If a subject experienced multiple occurrences of an AE of differing severities, only the most severe occurrence within each PT was counted."}
{"smiles": "O=c1cc(NCCCN[C@@H]2CCOc3c(Br)cc(Br)cc32)[nH]c2ccsc12", "note": "[CRS3123]", "values": [{"measurement": "No. (%) of subjects: Aspartate aminotransferase increased", "setting": "Cohort A, 200 mg Q12h (n = 8)", "result": "0 (0.0)"}, {"measurement": "No. (%) of subjects: Blood bilirubin increased", "setting": "Cohort A, 200 mg Q12h (n = 8)", "result": "0 (0.0)"}, {"measurement": "No. (%) of subjects: Blood calcium increased", "setting": "Cohort A, 200 mg Q12h (n = 8)", "result": "0 (0.0)"}, {"measurement": "No. (%) of subjects: Blood potassium increased", "setting": "Cohort A, 200 mg Q12h (n = 8)", "result": "0 (0.0)"}, {"measurement": "No. (%) of subjects: Blood pressure, diastolic, decreased", "setting": "Cohort A, 200 mg Q12h (n = 8)", "result": "0 (0.0)"}, {"measurement": "No. (%) of subjects: Blood pressure, diastolic, increased", "setting": "Cohort A, 200 mg Q12h (n = 8)", "result": "0 (0.0)"}, {"measurement": "No. (%) of subjects: Blood pressure, systolic, decreased", "setting": "Cohort A, 200 mg Q12h (n = 8)", "result": "0 (0.0)"}, {"measurement": "No. (%) of subjects: Blood pressure, systolic, increased", "setting": "Cohort A, 200 mg Q12h (n = 8)", "result": "0 (0.0)"}, {"measurement": "No. (%) of subjects: Diarrhea", "setting": "Cohort A, 200 mg Q12h (n = 8)", "result": "0 (0.0)"}, {"measurement": "No. (%) of subjects: Dry skin", "setting": "Cohort A, 200 mg Q12h (n = 8)", "result": "0 (0.0)"}, {"measurement": "No. (%) of subjects: Dysgeusia", "setting": "Cohort A, 200 mg Q12h (n = 8)", "result": "0 (0.0)"}, {"measurement": "No. (%) of subjects: Ear and labyrinth disorders (system organ class)", "setting": "Cohort A, 200 mg Q12h (n = 8)", "result": "1 (12.5)"}, {"measurement": "No. (%) of subjects: Ear discomfort", "setting": "Cohort A, 200 mg Q12h (n = 8)", "result": "1 (12.5)"}, {"measurement": "No. (%) of subjects: Erythema", "setting": "Cohort A, 200 mg Q12h (n = 8)", "result": "0 (0.0)"}, {"measurement": "No. (%) of subjects: Gastrointestinal disorders (system organ class)", "setting": "Cohort A, 200 mg Q12h (n = 8)", "result": "0 (0.0)"}, {"measurement": "No. (%) of subjects: General disorders and administration site conditions (system organ class)", "setting": "Cohort A, 200 mg Q12h (n = 8)", "result": "0 (0.0)"}, {"measurement": "No. (%) of subjects: Headache", "setting": "Cohort A, 200 mg Q12h (n = 8)", "result": "1 (12.5)"}, {"measurement": "No. (%) of subjects: Hemoglobin decreased", "setting": "Cohort A, 200 mg Q12h (n = 8)", "result": "2 (25.0)"}, {"measurement": "No. (%) of subjects: Infections and infestations (system organ class)", "setting": "Cohort A, 200 mg Q12h (n = 8)", "result": "1 (12.5)"}, {"measurement": "No. (%) of subjects: Infusion site thrombosis", "setting": "Cohort A, 200 mg Q12h (n = 8)", "result": "0 (0.0)"}, {"measurement": "No. (%) of subjects: Injury, poisoning, and procedural complications (system organ class)", "setting": "Cohort A, 200 mg Q12h (n = 8)", "result": "1 (12.5)"}, {"measurement": "No. (%) of subjects: Investigations (system organ class)", "setting": "Cohort A, 200 mg Q12h (n = 8)", "result": "5 (62.5)"}, {"measurement": "No. (%) of subjects: Lipase increased", "setting": "Cohort A, 200 mg Q12h (n = 8)", "result": "1 (12.5)"}, {"measurement": "No. (%) of subjects: Musculoskeletal and connective tissue disorders (system organ class)", "setting": "Cohort A, 200 mg Q12h (n = 8)", "result": "0 (0.0)"}, {"measurement": "No. (%) of subjects: Myalgia", "setting": "Cohort A, 200 mg Q12h (n = 8)", "result": "0 (0.0)"}, {"measurement": "No. (%) of subjects: Nervous system disorders (system organ class)", "setting": "Cohort A, 200 mg Q12h (n = 8)", "result": "1 (12.5)"}, {"measurement": "No. (%) of subjects: Oropharyngeal pain", "setting": "Cohort A, 200 mg Q12h (n = 8)", "result": "0 (0.0)"}, {"measurement": "No. (%) of subjects: Psychiatric disorders (system organ class)", "setting": "Cohort A, 200 mg Q12h (n = 8)", "result": "1 (12.5)"}, {"measurement": "No. (%) of subjects: Respiratory, thoracic, and mediastinal disorders (system organ class)", "setting": "Cohort A, 200 mg Q12h (n = 8)", "result": "0 (0.0)"}, {"measurement": "No. (%) of subjects: Skin and subcutaneous tissue disorders (system organ class)", "setting": "Cohort A, 200 mg Q12h (n = 8)", "result": "0 (0.0)"}, {"measurement": "No. (%) of subjects: Subjects with TEAEs", "setting": "Cohort A, 200 mg Q12h (n = 8)", "result": "8 (100.0)"}, {"measurement": "No. (%) of subjects: Throat irritation", "setting": "Cohort A, 200 mg Q12h (n = 8)", "result": "0 (0.0)"}, {"measurement": "No. (%) of subjects: Upper respiratory tract infection", "setting": "Cohort A, 200 mg Q12h (n = 8)", "result": "1 (12.5)"}, {"measurement": "No. (%) of subjects: White blood cell count increased", "setting": "Cohort A, 200 mg Q12h (n = 8)", "result": "0 (0.0)"}, {"measurement": "No. (%) of subjects: Alanine aminotransferase increased", "setting": "Cohort B, 400 mg Q12h (n = 8)", "result": "0 (0.0)"}, {"measurement": "No. (%) of subjects: Amylase increased", "setting": "Cohort B, 400 mg Q12h (n = 8)", "result": "1 (12.5)"}, {"measurement": "No. (%) of subjects: Anxiety", "setting": "Cohort B, 400 mg Q12h (n = 8)", "result": "0 (0.0)"}, {"measurement": "No. (%) of subjects: Arthropod bite", "setting": "Cohort B, 400 mg Q12h (n = 8)", "result": "0 (0.0)"}, {"measurement": "No. (%) of subjects: Aspartate aminotransferase increased", "setting": "Cohort B, 400 mg Q12h (n = 8)", "result": "0 (0.0)"}, {"measurement": "No. (%) of subjects: Blood bilirubin increased", "setting": "Cohort B, 400 mg Q12h (n = 8)", "result": "0 (0.0)"}, {"measurement": "No. (%) of subjects: Blood calcium increased", "setting": "Cohort B, 400 mg Q12h (n = 8)", "result": "1 (12.5)"}, {"measurement": "No. (%) of subjects: Blood potassium increased", "setting": "Cohort B, 400 mg Q12h (n = 8)", "result": "1 (12.5)"}, {"measurement": "No. (%) of subjects: Blood pressure, diastolic, decreased", "setting": "Cohort B, 400 mg Q12h (n = 8)", "result": "0 (0.0)"}, {"measurement": "No. (%) of subjects: Blood pressure, diastolic, increased", "setting": "Cohort B, 400 mg Q12h (n = 8)", "result": "0 (0.0)"}, {"measurement": "No. (%) of subjects: Blood pressure, systolic, decreased", "setting": "Cohort B, 400 mg Q12h (n = 8)", "result": "0 (0.0)"}, {"measurement": "No. (%) of subjects: Blood pressure, systolic, increased", "setting": "Cohort B, 400 mg Q12h (n = 8)", "result": "0 (0.0)"}, {"measurement": "No. (%) of subjects: Diarrhea", "setting": "Cohort B, 400 mg Q12h (n = 8)", "result": "2 (25.0)"}]}
